# Laboratory results taken from patent publication US20230165870A1, “6,8-dioxa-3-azabicyclo[3.2.l]Octane Carboxylic Acids And Their Derivatives For Use In The Treatment Of Inflammations” (MINERVA S.R.L., priority 2020, published 2023).
# Structures can show the parent of a compound that is named as a salt.
# Columns and labels:
# Type in all cases: cell-based
# [1] = system: human dendritic cells stimulated with LPS; experiment: Production of IL-1β, TNF-α and IL-6 in human monocytes-derived dendritic cells stimulated with LPS (Luminex multiplex assay); settings: 50 ng/ml LPS, MT8 10 or 30 µM, 18 hours
# Protocol: (§1) LipoPoliSaccharide (LPS) is an endotoxin that induces a strong immune reaction. In the presence of LPS, immune system cells such as monocytes and dendritic cells react by producing high amounts of inflammatory cytokines such as IL-1β, TNFα and IL-6. To test the ability of MT8 to modulate the production of these cytokines, human monocytes (isolated from buffy coat using anti-CD14 antibody) and human monocytes-derived dendritic cells (MDCs) were cultured at 10^6 cells/ml in complete medium and stimulated with 50 ng/ml of LPS, in the presence or absence of MT8 at a concentration of 10 or 30 µM. After 18 hours of incubation, the supernatants of both cell types were collected and the production of IL-1β, TNF-α, and IL-6 was evaluated by Luminex multiplex assay technology. […] In particular, MT8 was able to decrease the amount of IL-1β in a dose-dependent manner in both monocytes and dendritic cells. In the latter, the reduction recorded was over 50% (FIG. 1B), while in monocytes the reduction was about 17% (FIG. 1A). In any case, this reduction is statistically significant. Similar results were obtained regarding the production of TNF-α which, in the presence of MT8, is reduced by about 17% in monocytes (FIG. 1C) and by 19% in dendritic cells (FIG. 1D). Again, the reduction observed in the presence of MT8 is statistically significant. […] Also, in the latter case the reduction is statistically significant.
# [2] = system: human monocytes stimulated with LPS; experiment: Production of IL-1β, TNF-α and IL-6 in human monocytes stimulated with LPS (Luminex multiplex assay); settings: 50 ng/ml LPS, MT8 10 or 30 µM, 18 hours
# Protocol: as §1
# ADAR1 = experiment: Activation of the homodimeric complex of ADAR1 in HEK-293 TrkA cells (immunoprecipitation, Western Blot, densitometry); settings: serum-free 18 hours, 10 µM MT8, 60 minutes, FIG. 2
# Protocol: In order to study the effect of the MT8 compound on the ADAR1 enzyme, HEK-293 TrkA cells were cultured in serum-free medium for 18 hours and incubated with or without 10 µM of MT8 for another 60 minutes. The cells were then lysed in RIPA buffer (50 mM Tris-HCI, pH 7.4; 150 mM NaCl; 2 mM EDTA; 1 mM NaF; 1 mM sodium orthovanadate, 1% NP-40) and the proteins immunoprecipitated with Anti-ADAR1 antibody and subjected to biochemical analysis by Western Blot. Briefly, 500 µg of total protein was immunoprecipitated using a specific Anti-ADAR1 antibody. The immunoprecipitated product was loaded onto polyacrylamide gel and transferred onto the PVDF membrane. The membrane was then incubated with specific anti-ADAR1 antibodies for signal detection. The analysis allowed to highlight the presence of homodimeric complexes ADAR1/ADAR1 and of the monomeric forms of ADAR1 p150 and p110. The quantitative determination of the homodimer complex of ADAR1, performed by densitometry, was expressed as the ratio between the density of the band of the homodimer ADAR1/ADAR1 and that of the monomer ADAR1 p110.
# miR-101 [3] = experiment: miR-101 expression levels in HEK-293 TrkA cells following ADAR1 knock-down (Real-time PCR); settings: 10 µM MT8, 60 minutes, FIG. 4
# Protocol: In order to study the effect of MT8 on miR-101 regulatory mechanisms under metabolic stress conditions, HEK-293 TrkA cells were transfected with ADAR1-specific siRNA or control siRNA (scrambled) at the final concentration of 50 nM. After 48 hours, the cells were incubated in serum-free medium for 18 hours and stimulated with MT8 at a concentration of 10 µM for a further 60 minutes. The cells were lysed with TRIzol for the extraction of total RNA, used for the assay of miR-101 by Real Time PCR. The quantitative determination of miR-101 was performed using the 5 s ribosomal RNA gene as the housekeeping gene and the relative increase calculated applying the 2^-ΔCt method.
# miR-101 [4] = experiment: Expression of miR-101 in human monocytes stimulated with LPS (Real-time PCR)
# Protocol: In order to study the effect of MT8 on the activity of miR-101 in the pro-inflammatory setting, human monocytes isolated from buffy coat were stimulated with 1 µg/ml of LPS in the presence or absence of MT8 at the final concentration of 1 0 µM. After 60 minutes, the cells were lysed in TRIzol for the extraction of total RNA, which was then used for the quantification of miR-101 by Real-time PCR. […] The quantitative determination was performed using the 5 s ribosomal RNA gene as housekeeping and the relative increase calculated applying the 2^-ΔCt method.
smiles,measurement,setting,value
"O=C(O)[C@H]1O[C@H]2O[C@@H]1C(=O)N(Cc1ccccc1)[C@@H]2Cc1ccccc1 [MT8, (1S, 4R, 5R, 7S) -3,4-dibenzyl-2-oxo-6,8-dioxa-3-azabicyclo[3.2.1]octane-7-carboxylic acid L-lysine Salt]",reduction of IL-1β production,[1]; FIG. 1B,over 50%
same,reduction of TNF-α production,[1]; FIG. 1D,19%
same,reduction of IL-6 production,[1]; FIG. 1F,about 65%
same,reduction of IL-1β production,[2]; FIG. 1A,about 17%
same,reduction of TNF-α production,[2]; FIG. 1C,about 17%
same,reduction of IL-6 production,[2]; FIG. 1E,about 70%
same,"homodimeric (active) form of ADAR1, ratio homodimer ADAR1/ADAR1 to monomer ADAR1 p110, compared to untreated cells",ADAR1,high increase
same,ability to decrease miR-101 expression in cells transfected with specific siRNA for ADAR1,miR-101 [3]; ADAR1-specific siRNA 50 nM,not
same,miR-101 expression level in scrambled siRNA-transfected cells,miR-101 [3]; control (scrambled) siRNA 50 nM,marked decrease
same,time of exposure until decrease of miR-101,miR-101 [4]; cellular and tissue systems exposed to MT8,≤ 1 h
same,miR-101 expression level compared to monocytes treated with LPS alone,"miR-101 [4]; human monocytes, 1 µg/ml LPS, MT8 1 0 µM, 60 minutes, FIG. 3",strong decrease
